Measurements reported in ChEMBL document CHEMBL1201862, “PubChem BioAssay data set” (2004).
Calls of active or inactive are those of the source.

Assays:
[1] = biological target: T1, Apoptotic protease-activating factor 1 (Homo sapiens, UniProt O14727); experiment: SAR analysis of small molecule Activators of Apaf-1 in a Fluorescent assay.; format: functional; conditions: read-out: EC50_Mean;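 note: caspase-3 cleavage of fluorogenic Rh110 DEVD substrate downstream of apoptosome activation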
T1 sequence (O14727 whole entry): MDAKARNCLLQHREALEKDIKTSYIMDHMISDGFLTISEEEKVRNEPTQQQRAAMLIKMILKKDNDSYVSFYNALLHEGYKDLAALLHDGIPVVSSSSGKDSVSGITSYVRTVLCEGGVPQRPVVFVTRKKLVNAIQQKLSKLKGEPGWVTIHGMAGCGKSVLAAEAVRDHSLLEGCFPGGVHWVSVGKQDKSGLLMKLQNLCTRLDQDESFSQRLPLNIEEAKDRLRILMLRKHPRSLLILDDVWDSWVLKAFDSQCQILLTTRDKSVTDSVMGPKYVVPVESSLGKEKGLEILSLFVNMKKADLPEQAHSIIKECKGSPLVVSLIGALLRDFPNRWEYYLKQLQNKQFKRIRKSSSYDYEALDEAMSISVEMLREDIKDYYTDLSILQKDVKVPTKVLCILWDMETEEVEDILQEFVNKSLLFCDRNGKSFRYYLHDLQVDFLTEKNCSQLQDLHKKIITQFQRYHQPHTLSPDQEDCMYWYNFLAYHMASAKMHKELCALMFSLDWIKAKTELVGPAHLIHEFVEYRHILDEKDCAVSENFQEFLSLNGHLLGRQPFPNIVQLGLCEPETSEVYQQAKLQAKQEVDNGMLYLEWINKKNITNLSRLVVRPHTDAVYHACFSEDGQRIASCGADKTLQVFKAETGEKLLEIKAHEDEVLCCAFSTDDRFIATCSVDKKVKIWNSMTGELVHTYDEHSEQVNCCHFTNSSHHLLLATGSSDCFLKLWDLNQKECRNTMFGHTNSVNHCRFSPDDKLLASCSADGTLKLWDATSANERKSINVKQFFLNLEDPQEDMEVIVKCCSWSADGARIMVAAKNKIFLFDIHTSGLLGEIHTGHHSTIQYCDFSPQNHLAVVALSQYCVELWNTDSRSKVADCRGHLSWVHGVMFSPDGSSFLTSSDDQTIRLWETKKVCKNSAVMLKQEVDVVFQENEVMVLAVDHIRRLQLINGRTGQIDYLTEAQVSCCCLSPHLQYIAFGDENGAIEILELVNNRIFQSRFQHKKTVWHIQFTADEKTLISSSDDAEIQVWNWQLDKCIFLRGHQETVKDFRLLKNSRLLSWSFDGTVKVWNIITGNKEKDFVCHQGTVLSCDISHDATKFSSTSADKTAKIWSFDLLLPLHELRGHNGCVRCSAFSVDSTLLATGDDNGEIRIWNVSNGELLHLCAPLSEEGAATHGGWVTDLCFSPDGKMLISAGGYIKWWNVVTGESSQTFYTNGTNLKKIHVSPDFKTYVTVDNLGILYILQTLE

[2] = inhibitors of intracellular T. cruzi replication, confirmation, NIH3T3 host cells, beta-gal luminescence (AID 2044); format: functional, cell-based;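 note: intracellular parasites grown in NIH/3T3 mouse fibroblasts as host cells; luminescent beta-galactosidase reporter signal from transgenic T. cruzi replicating inside host cells; inhibitors lower the luminescence signal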
HEK293 = experiment: inhibitors of LMP1-driven NF-kB reporter, dose response, cell-based, HEK293, luciferase, cherry-pick (AID 588343); format: functional; conditions: Homo sapiens
[3] = cytotoxicity toward NIH3T3 fibroblasts, dose response, counter-screen, cell-based, ATP luminescence, mouse fibroblasts (AID 2010); format: functional;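 note: cells exposed to compound for about 90 hours before reading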
[4] = microbe, parasite or virus in culture; format: functional; conditions: Mycobacterium tuberculosis
[5] = biological target: T2, Low molecular weight phosphotyrosine protein phosphatase (Homo sapiens, UniProt P24666); format: functional; conditions: read-out: IC50_Mean;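 note: Dose-response confirmation assay measuring inhibition of LMPTP enzyme activity by fluorescence intensity read-out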
T2 sequence (P24666 whole entry): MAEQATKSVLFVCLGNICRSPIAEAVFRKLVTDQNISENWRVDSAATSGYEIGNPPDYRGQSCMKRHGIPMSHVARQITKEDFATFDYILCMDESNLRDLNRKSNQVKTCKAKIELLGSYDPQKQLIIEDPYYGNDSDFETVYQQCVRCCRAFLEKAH

[6] = biological target: T3, Carboxy-terminal domain RNA polymerase II polypeptide A small phosphatase 1 (Homo sapiens, UniProt Q9GZU7); experiment: inhibitors of CTDSP1, concentration-response testing, biochemical assay, absorbance-based, actives from ultra-high-throughput screening (AID 540297); format: functional
T3 sequence (Q9GZU7 whole entry): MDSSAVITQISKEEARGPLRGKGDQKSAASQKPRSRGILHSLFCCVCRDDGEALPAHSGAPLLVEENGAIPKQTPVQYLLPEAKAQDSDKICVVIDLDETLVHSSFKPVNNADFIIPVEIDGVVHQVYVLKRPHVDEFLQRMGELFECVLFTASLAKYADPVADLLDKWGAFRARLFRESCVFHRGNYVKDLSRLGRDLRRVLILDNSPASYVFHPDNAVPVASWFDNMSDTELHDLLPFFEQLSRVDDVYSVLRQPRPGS

[7] = Luminescence Cell-Based Dose Confirmation HTS to Identify Activators of 5'UTR Stem-Loop Driven Alpha-Synuclein mRNA Translation in H4 Neuroglioblastoma Cells. [Related pubchem assays: 1829 (Project Summary), 1814 (Primary HTS)]; format: functional
[8] = Luminescence Cell-Based Dose Response HTS to Identify Activators of Luciferase Translation or Activity in H4 […] Cells. [Related pubchem assays: 1829 (Project Summary), 1814 (Primary HTS)]; format: functional
H4 = experiment: Luminescence Cell-Based Dose Response HTS to Identify Activators of 5'UTR Stem-Loop Driven Prion Protein mRNA Translation in H4 Neuroglioblastoma Cells. [Related pubchem assays: 1829 (Project Summary), 1814 (Primary HTS)]; format: functional; conditions: Homo sapiens
[9] = biological target: T4, Rac GTPase-activating protein 1 (Homo sapiens, UniProt Q9H0H5); experiment: MgcRacGAP GTPase-activating activity inhibitors, confirmation, biochemical, ADP Hunter fluorescence, primary and confirmatory (AID 624330); format: functional
T4 sequence (Q9H0H5 whole entry): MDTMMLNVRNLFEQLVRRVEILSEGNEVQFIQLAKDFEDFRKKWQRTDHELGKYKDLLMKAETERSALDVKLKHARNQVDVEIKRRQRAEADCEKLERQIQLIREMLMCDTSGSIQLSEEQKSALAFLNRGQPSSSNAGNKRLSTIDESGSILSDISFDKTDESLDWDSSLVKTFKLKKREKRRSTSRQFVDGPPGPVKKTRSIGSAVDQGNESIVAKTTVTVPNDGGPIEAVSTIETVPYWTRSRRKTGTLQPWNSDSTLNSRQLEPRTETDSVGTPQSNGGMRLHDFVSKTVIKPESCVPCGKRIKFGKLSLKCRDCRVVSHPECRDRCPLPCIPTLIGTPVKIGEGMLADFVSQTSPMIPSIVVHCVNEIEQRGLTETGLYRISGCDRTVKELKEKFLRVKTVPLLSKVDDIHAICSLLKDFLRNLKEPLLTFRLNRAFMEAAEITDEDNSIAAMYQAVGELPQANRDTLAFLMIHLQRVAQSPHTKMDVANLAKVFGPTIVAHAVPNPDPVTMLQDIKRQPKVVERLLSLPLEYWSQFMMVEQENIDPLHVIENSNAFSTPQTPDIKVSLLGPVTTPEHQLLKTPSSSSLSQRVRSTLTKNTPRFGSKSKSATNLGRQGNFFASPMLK

[10] = biological target: Glucose-6-phosphate 1-dehydrogenase (Homo sapiens, UniProt P11413); experiment: human G6PD enzyme inhibitors, dose response, selectivity assay for P. falciparum G6PD inhibitor project, biochemical, fluorescence (AID 504792); format: functional
H9c2 = experiment: cells; format: functional, cell-based; conditions: Rattus norvegicus, H9c2, Myocardium;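 note: confirmatory concentration-response retest of ultra-high-throughput screening hits for modulation of myocardial damage; cell death induced by hydrogen peroxide oxidative stress; compound pretreatment for 60 min then peroxide exposure for 2 h; potency is for protecting the cells against peroxide damage rather than for killing them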
Melanocortin receptor 4 = Melanocortin receptor 4 (Homo sapiens, UniProt P32245); format: functional, cell-based;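 note: Cell-based assay with luminescence read-out, confirmatory dose-response testing for agonist activity of biased ligands at MC4R; human U2OS cells with tagged receptor and beta-arrestin; potency of agonists that increase receptor coupling to beta-arrestin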
[11] = growth suppression of beta-catenin-knockout colon cells, dose response, cell-based, HCT116, human colon tumor (AID 1045); format: functional;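 note: HCT116 colon tumor cells with beta catenin knocked out; cells exposed to compound for 60 hours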
[12] = cytotoxicity in HEK-293T cells, dose response, cytotoxicity control for TCR NF-kB inhibitor project, luminescence, T-cell screen hits (AID 489026); format: functional, cell-based;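 note: cells exposed to compound about 14 hours before the viability readout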
[13] = growth suppression of PTEN-null colon cells, dose response, cell-based, HCT116 PTEN knockout (AID 1047); format: functional;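 note: HCT116 colon tumor cells with PTEN knocked out; cells exposed to compound for 60 hours before readout; potency for loss of cell viability measured by luminescence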
[14] = biological target: T5, Ubiquitin-conjugating enzyme E2 N (Homo sapiens, UniProt P61088); format: functional;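 note: Dose-response confirmation in a TR-FRET assay detecting UBC13-driven polyubiquitin chain formation, inhibition measured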
T5 sequence (P61088 whole entry): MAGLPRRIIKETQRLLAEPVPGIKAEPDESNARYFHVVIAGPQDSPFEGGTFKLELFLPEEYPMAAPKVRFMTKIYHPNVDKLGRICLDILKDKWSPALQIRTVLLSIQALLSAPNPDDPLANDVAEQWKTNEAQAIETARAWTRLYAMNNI

[15] = biological target: Eukaryotic translation initiation factor 4E (Mus musculus, UniProt P63073); experiment: eIF4E–eIF4G protein interaction inhibitors, dose response, biochemical, TR-FRET (AID 855); format: functional;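 note: potency for disrupting eIF4E binding to eIF4GI seen as loss of FRET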
[16] = biological target: Heat shock protein HSP 90-alpha (Homo sapiens, UniProt P07900); format: functional, organism-based
[17] = CRF-BP/CRF-R2 complex antagonists, dose response, cell-based, uHTS hits, 384-well (AID 651639); format: functional, Homo sapiens; conditions: read-out: IC50_Mean
[18] = biological target: DNA dC->dU-editing enzyme APOBEC-3A (Homo sapiens, UniProt P31941); experiment: Dose Response confirmation of small molecule APOBEC3A DNA Deaminase Inhibitors via a fluorescence-based single-stranded DNA deaminase assay. [Related pubchem assays (depositor defined):AID493011, AID493024]; format: functional
[19] = biological target: DNA dC->dU-editing enzyme APOBEC-3G (Homo sapiens, UniProt Q9HC16); format: functional;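 note: Dose-response counterscreen measuring inhibition of APOBEC3G DNA deaminase activity, run while confirming APOBEC3A inhibitors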
[20] = biological target: T6, DNA repair and recombination protein RAD54-like (Homo sapiens, UniProt Q92698); experiment: inhibitors of human RAD54 branch migration, confirmation, biochemical, fluorescence, cherry-picked samples, dose series (AID 651657); format: functional
T6 sequence (Q92698 whole entry): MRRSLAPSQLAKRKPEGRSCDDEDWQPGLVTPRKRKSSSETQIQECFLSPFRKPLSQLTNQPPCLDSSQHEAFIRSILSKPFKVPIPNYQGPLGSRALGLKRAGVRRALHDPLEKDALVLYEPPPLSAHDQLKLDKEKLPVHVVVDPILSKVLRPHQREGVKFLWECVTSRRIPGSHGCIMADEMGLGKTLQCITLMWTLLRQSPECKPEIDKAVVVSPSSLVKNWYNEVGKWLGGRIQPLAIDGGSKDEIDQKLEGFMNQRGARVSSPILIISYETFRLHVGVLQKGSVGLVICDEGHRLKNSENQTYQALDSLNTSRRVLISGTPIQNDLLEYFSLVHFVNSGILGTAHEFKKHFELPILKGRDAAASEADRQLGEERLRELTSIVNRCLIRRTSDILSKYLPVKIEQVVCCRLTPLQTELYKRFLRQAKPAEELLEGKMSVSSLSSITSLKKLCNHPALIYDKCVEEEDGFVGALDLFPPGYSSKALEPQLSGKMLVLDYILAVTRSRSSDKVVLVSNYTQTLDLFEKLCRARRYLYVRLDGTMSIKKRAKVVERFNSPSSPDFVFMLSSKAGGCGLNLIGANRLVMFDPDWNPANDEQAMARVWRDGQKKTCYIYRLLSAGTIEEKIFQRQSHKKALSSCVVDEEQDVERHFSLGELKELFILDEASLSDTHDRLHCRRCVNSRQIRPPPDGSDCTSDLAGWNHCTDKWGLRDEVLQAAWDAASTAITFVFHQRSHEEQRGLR

Sequence of Melanocortin receptor 4 (P32245 whole entry): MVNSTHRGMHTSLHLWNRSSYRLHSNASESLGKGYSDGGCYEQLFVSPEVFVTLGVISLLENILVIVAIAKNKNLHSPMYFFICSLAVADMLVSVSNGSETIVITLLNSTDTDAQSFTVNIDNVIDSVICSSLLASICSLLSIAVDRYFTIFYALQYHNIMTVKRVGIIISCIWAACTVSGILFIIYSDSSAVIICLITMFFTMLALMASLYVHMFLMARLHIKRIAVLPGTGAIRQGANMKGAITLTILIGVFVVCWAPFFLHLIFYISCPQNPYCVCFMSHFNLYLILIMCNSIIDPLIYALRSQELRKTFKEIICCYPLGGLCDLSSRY
Sequence of Glucose-6-phosphate 1-dehydrogenase (P11413 whole entry): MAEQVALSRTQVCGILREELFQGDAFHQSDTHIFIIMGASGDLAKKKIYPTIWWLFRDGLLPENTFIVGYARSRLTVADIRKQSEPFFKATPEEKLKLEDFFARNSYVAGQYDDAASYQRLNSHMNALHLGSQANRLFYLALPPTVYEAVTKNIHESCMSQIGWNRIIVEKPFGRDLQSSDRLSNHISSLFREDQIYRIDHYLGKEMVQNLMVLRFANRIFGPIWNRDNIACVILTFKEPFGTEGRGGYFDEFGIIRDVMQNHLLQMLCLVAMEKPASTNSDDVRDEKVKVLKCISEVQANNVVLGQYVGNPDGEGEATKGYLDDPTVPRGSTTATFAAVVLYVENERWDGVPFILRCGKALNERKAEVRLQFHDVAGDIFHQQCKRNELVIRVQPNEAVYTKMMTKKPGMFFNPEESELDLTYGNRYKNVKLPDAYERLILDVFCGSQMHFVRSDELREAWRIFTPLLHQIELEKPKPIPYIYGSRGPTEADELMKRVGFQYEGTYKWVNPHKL
Sequence of Eukaryotic translation initiation factor 4E (P63073 whole entry): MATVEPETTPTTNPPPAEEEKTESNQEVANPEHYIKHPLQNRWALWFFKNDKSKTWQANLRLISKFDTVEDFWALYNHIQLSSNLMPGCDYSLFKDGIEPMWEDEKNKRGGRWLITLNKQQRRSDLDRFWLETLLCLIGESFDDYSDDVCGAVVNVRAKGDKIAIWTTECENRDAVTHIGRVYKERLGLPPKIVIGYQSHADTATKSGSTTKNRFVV
Sequence of DNA dC->dU-editing enzyme APOBEC-3G (Q9HC16 whole entry): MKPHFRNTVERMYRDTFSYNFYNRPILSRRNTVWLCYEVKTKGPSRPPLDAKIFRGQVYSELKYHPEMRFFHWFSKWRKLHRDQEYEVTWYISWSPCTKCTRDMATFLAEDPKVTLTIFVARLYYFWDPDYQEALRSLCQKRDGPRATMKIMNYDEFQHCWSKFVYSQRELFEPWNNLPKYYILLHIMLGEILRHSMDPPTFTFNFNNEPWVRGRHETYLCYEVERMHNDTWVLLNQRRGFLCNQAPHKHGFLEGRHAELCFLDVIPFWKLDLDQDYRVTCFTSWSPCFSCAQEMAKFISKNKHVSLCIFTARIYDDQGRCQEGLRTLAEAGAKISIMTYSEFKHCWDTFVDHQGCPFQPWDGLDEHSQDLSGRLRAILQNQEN
Sequence of DNA dC->dU-editing enzyme APOBEC-3A (P31941 whole entry): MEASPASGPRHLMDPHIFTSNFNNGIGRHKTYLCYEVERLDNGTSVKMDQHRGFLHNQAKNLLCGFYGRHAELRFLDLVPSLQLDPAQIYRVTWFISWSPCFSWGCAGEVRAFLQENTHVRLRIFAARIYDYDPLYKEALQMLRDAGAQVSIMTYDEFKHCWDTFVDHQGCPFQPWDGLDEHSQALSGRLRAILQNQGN

In the case of `CC1CCCC(C)N1C(=O)C1CC(c2ccc(F)cc2)=NO1` (stereo not given), the EC50 [1] is reported as > 100 µM (inactive).

For `Cc1ccc(C)c(Cn2c(O)c(N=NC(S)=Nc3ccccc3F)c3ccccc32)c1`, the EC50 [2] was 1.17 µM (active), the AC50 (HEK293) was 2.44 µM (active) and the EC50 [3] was > 60 µM (not active).

With `FC(F)(F)c1ccc(Nc2nnnc3ccccc23)cc1` the CC50 [4] was > 40 µM (active), the IC50 [5] was 6.59 µM (active) and the IC50 [6] was 8.61 µM (active). For the same compound, the EC50 [7] was 7.83 µM (active), the EC50 [8] was 38 µM (active) and the EC50 (H4) was 6.68 µM (active).

For `COc1cc(Sc2ccc(C)cc2)c(OC)cc1N`, the IC50 [9] was 24.8 µM (active) and the IC50 [10] was > 80 µM (inactive).

For `COc1cc(-c2cc(NC=O)c3ncc(-c4ccccc4)n3c2)cc(OC)c1OC`, the IC50 (H9c2) was > 79 µM (inactive) and the EC50 (Melanocortin receptor 4) was > 89.2 µM (inactive).

For `CCCCCCCCCCCCCCCC[n+]1ccc(C=NO)cc1`, the EC50 [11] was 0.884 µM (active), the IC50 [12] was 67.7 µM (inactive) and the EC50 [13] was 1.26 µM (active). For the same compound, the IC50 [14] was > 20 µM (inactive), the EC50 (Melanocortin receptor 4) was > 3.3 µM (active) and the IC50 [15] was 12.7 µM (active). The AC50 [16] was 3.1 µM (active).

For `Cc1cccc(Cn2cc(C=O)c3ccccc32)c1`, the AC50 (HEK293) was 33.3 µM (active).

In the case of `COc1ccc(C(=O)O/N=C(\N)Cc2ccc(Cl)c(Cl)c2)cc1OC`, the IC50 [17] is reported as 5.1 µM (active).

For `CCc1ccc(-c2ccc(=O)[nH]n2)cc1S(=O)(=O)CCC(=O)Nc1ccccc1OC`, the EC50 [1] was > 100 µM (inactive).

In the case of `CC(=O)Nc1cc(-c2ccc(C(=O)NC3CC3)cc2)cn2c(-c3cccc(C(C)=O)c3)cnc12`, the IC50 (H9c2) is reported as 16.3 µM (active) and the EC50 (Melanocortin receptor 4) is reported as > 89.2 µM (inactive).

In the case of `CCn1c2c(c(C)[n+]1CC)C(=O)CC(C)(C)C2`, the IC50 [18] is reported as 1.89 µM (active), the IC50 [19] is reported as 3.74 µM (active) and the IC50 [6] is reported as 18.9 µM (active).

In the case of `CN(C)CCN(C(=O)c1ccco1)c1nc2cc3c(cc2s1)OCCO3`, the AC50 [20] is reported as 30.6 µM (active).

In the case of `O=C1CC2(CC(c3c(F)cccc3Cl)=NO2)C(=O)N1c1ccccc1` (stereo not given), the EC50 [1] is reported as > 100 µM (inactive).

With `CN(C)CCN(C(=O)CN1C(=O)c2ccccc2C1=O)c1nc2cc3c(cc2s1)OCCO3` the AC50 [20] was 57.6 µM (active), the EC50 [2] was < 0.1 µM (active) and the EC50 (cells) was 0.163 µM (active). The EC50 [3] was > 60 µM (not active).
